The source of these data is ChEMBL document CHEMBL3244364, “5,11-dimethyl-2,9-bis(phenylacetyl)-5,11-diazatetracyclo[6.2.2.0(2,7).0(4,9)]dodecane, a potent, novel analgesic” (J Med Chem, 1977).

Data set [1] has as its system Rattus norvegicus. Description: Analgesic activity in sc dosed rat assessed as estimated dose to elevate pain reaction threshold to pressure applied to hind paw of to 50 mmHg. Format: functional.
The test system of data set [2] is Rattus norvegicus. Description: Analgesic activity in rat assessed as elevate pain reaction threshold to pressure applied to hind paw of to 50 mmHg at 10 mg/kg, iv. Format: functional, organism-based. Also noted: dose 10 mg/kg.
In data set [3] the test system is Rattus norvegicus. The data set can be described thus: Analgesic activity in rat assessed as elevate pain reaction threshold to pressure applied to hind paw of to 50 mmHg at 5 mg/kg, iv. The class given is functional, organism-based. More on the design: dose 5 mg/kg.
For data set [4], the species on record is Rattus norvegicus. Description: Toxicity in rat assessed as catatonia. Format: organism-based. The following applies: in vivo.
Data set [5] concerns Rattus norvegicus. The data set can be described thus: Ratio of morphine ED50 to compound ED50 for analgesic activity in sc dosed rat. Format: functional.
The species entered for data set [6] is Rattus norvegicus. Description: Toxicity in rat assessed as straub tail. The class given is organism-based. The following applies: in vivo.
The species named for data set [7] is Rattus norvegicus. Description: Toxicity in rat assessed as exopthalmus. The class given is organism-based. The conditions noted are these: in vivo.
In data set [8] the test system is Rattus norvegicus. The data set can be described thus: Analgesic activity in rat assessed as ability to prolong reaction time at 3 mg/kg, sc by tail-flick assay in presence of 10 mg/kg, sc naloxone. Format: functional, organism-based.
Data set [9] concerns Rattus norvegicus. The data set can be described thus: Analgesic activity in rat assessed as ability to prolong reaction time at 3 mg/kg, sc by tail-flick assay. Format: functional, organism-based. Also noted: dose 3 mg/kg. In general terms: Hot-plate and tail-flick tests time the reaction to a heat stimulus.
In data set [10] the test system is Rattus norvegicus. Description: Analgesic activity in rat assessed as elevate pain reaction threshold to pressure applied to hind paw of to 50 mmHg at 50 mg/kg, sc. The class given is functional, organism-based. Also noted: dose 50 mg/kg.
Where [11] appears, read: Rattus norvegicus, sc, read-out: ED50.

Active and inactive are the calls of the source.

`CN1CC2C3CN(C)C4CC3(C(=O)Cc3ccccc3)C1CC24C(=O)CC1CCCCC1` (configuration not stated): the ED50 – broadly, the dose that gives a 50% effect, or the effect in half of the subjects – in data set [1] (setting [11]) is 10.1 mg/kg. Consider `O=C(Cc1ccccc1)C12CC3NCC1C1CNC2CC31C(=O)Cc1ccccc1`, for which the 50% effective dose (ED50) in data set [1] (setting [11]) was above 81 mg/kg. As to `CN1CC2C3CNC4CC3(C(=O)Cc3ccccc3)C1CC42C(=O)Cc1ccccc1` (configuration not stated), in [1] (setting [11]), the ED50 is 45 mg/kg. The same measure, in the same setting: the value for `CCN1CC2C3CN(CC)C4CC3(C(=O)Cc3ccccc3)C1CC24C(=O)Cc1ccccc1` was 41.1 mg/kg; that for `C=CCN1CC2C3CN(CC=C)C4CC3(C(=O)Cc3ccccc3)C1CC24C(=O)Cc1ccccc1` was above 81 mg/kg; that for `CCN1CC2C3CN(C)C4CC3(C(=O)Cc3ccccc3)C1CC24C(=O)Cc1ccccc1` (configuration not stated) was 29.9 mg/kg. As to `C=CCN1CC2C3CN(C)C4CC3(C(=O)Cc3ccccc3)C1CC24C(=O)Cc1ccccc1` (configuration not stated), in [1] (setting [11]), the median effective dose (ED50) is above 80 mg/kg. In [2], the result was inactive. For `CN1CC2C3CN(C)C4CC3(C(=O)CC3CCCCC3)C1CC24C(=O)CC1CCCCC1`, the ED50 in data set [1] (setting [11]) was above 81 mg/kg. On to `CC(C)=CCN1CC[C@]2(C)c3cc(O)ccc3C[C@H]1[C@H]2C`, for which the result in [3] was Active. For `CN1CC2C3CN(C)C4CC3(C(=O)Cc3ccccc3)C1CC24C(=O)Cc1ccccc1` (racemic) [listing 1 of 2 here], in [1], the median effective dose (ED50) was 1 mg/kg. For the same compound, the Activity result in data set [4], in data set [6] and in data set [7] was “Toxic” in each case. Further, in data set [5], the “Ratio ED50” value was 1.5. Consider `CN1CC2C3CN(C)C4CC3(C(=O)Cc3ccccc3)C1CC24C(=O)Cc1ccccc1` (racemic) [listing 2 of 2 here], for which, in data set [8], the outcome was inactive. The outcome in [9] and in data set [10] was Active.

With `CN1CC2C3CN(C)C4CC3(C(=O)Cc3ccccc3)C1CC24C(=O)Cc1ccccc1` (single isomer, unassigned; (+)), the median effective dose (ED50) in data set [1] is above 80 mg/kg. Take `CN1CC2C3CN(C)C4CC3(C(=O)Cc3ccccc3)C1CC24C(=O)Cc1ccccc1` (single isomer, unassigned; (-)): in data set [1], the ED50 was 0.6 mg/kg. Also, the “Ratio ED50” value in data set [5] was found to be 3. With `CN1CC[C@]23c4c5ccc(O)c4O[C@H]2[C@@H](O)C=C[C@H]3[C@H]1C5` [MORPHINE], the ED50 in data set [1] (setting [11]) was 1.5 mg/kg.
